Laboratory results as given in patent US7550492B2, “Benzo[1,2,5]thiadiazole compounds” (Janssen Pharmaceutica N.V., priority 2003, dated 2009).
Structures can show the parent of a compound that is named as a salt.

Target: T1, CCK2 receptor (Homo sapiens, UniProt P32239)
T1 construct: Membranes were prepared from the HEKZFP cells after induction; endogenous in cells
T1 sequence (P32239 1-447): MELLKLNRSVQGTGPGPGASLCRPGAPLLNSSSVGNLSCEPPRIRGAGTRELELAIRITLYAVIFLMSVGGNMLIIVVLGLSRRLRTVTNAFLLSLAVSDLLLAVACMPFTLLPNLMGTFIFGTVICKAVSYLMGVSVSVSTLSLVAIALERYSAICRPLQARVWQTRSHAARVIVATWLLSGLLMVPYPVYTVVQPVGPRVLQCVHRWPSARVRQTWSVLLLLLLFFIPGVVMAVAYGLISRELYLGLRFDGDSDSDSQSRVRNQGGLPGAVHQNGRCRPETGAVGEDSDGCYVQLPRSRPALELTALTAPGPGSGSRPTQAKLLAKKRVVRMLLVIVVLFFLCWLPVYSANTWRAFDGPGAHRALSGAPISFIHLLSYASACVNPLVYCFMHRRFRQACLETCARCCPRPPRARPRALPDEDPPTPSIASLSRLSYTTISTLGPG
Test: Binding Assay: competition with [125I]-BH-CCK-8S in HEKZFP cell membranes
Conditions: 60 min at 21±3° C., Cheng-Prusoff
Experimental: Zinc Finger Proteins (ZFP) specific for the CCK2R gene were identified by Sangamo Biosciences. The ZFP domain was fused with the herpes simplex virus VP16 activation domain, and the fusion protein was subsequently cloned into the pcDNA3 mammalian expression vector (Invitrogen, San Diego, Calif.). Tet-inducible cell lines expressing the coding region from the ZFP vector were created using the T-REx-293™ cell line (Invitrogen). After 2 weeks of selection in culture medium containing […] Zeocin (Invitrogen), sixty drug-resistant stable clones were isolated and analyzed for ZFP expression as well as CCK2R induction upon addition of doxycycline to the culture medium. The cell line with the most appropriate CCK2R ZFP construct was used in all further assays and was termed the HEKZFP cell line.
HEKZFP cells were grown in DMEM supplemented with L-glutamine (2 mM), penicillin (50 units/mL) and streptomycin (50 μg/mL) and 10% FBS (v/v). HEKZFP cells were treated with […] doxycycline (Sigma-Aldrich, MO; USA) for 2 days to de-repress the tet-regulated expression of the CCK2 receptor selective zinc finger proteins and were harvested using a rubber cell scraper.
Membranes were prepared from the HEKZFP cells after induction. Frozen cell pellets (−40° C.) were thawed in 14 mL of buffer A (10 mM HEPES, 130 mM NaCl, 4.7 mM KCl, 5 mM MgCl, 1 mM EGTA and 15.4 mg/100 mL bacitracin at pH 7.2), adapted from E. A. Harper et al. (Br. J. Pharmacol. (1996) 118(7):1717-1726). The thawed pellets were homogenized using a Polytron PT-10 (7×1 s). The homogenates were centrifuged for 5 min at 1500 rpm (600×g), and the resulting pellets were discarded. The supernatants were re-centrifuged in order to collect the receptor-membrane pellets (25 min 15,000 rpm; 39,000×g), which were re-suspended in buffer A.
All assays were conducted in 96-well plate (GF/B millipore filter plates) using buffer A. For the optimal cell number determination experiments, cells in concentrations ranging from 2.5×10^5 to 12.5×10^5 cells/well were incubated with 20 pM [^125I]-BH-CCK-8S (50 μL 60 pM) solution) in a total volume of 150 μL. Total binding of [^125I]-BH-CCK-8S was determined in the presence of 15 μL of buffer A. Non-specific binding of [^125I]-BH-CCK-8S was determined in the presence of 15 μL of 10 μM YF476, a CCK-2 receptor selective antagonist that is structurally unrelated to the radioligand [^125I]-BH-CCK-8S. The assay preparation was incubated for 1 h at 21±3° C., and then the assay was terminated by rapid filtration of the preparation under reduced pressure. The loaded filters were washed three times using undiluted PBS (100 μL), and then 100 μL of scintillation fluid was added to the filter plate. Bound radioactivity was determined using a Topcount (Packard BioScience, Meriden, Conn.) with a count time of 1 min. From these experiments a cell concentration of 1 pellet in 15 mL of buffer was chosen for use in other assays. To validate the radioligand concentration and incubation time for the assay, saturation and kinetic binding studies were also conducted (see M. F. Morton, The Pharmacological Characterization of Cholecystokinin Receptors in the Human Gastrointestinal Tract. PhD Thesis, University of London, 2000). […] The assay was then terminated according to the procedure outlined above.
The pKi values were determined using the equation of Y.-C. Cheng and W. H. Prusoff (Biochem. Pharmacol., 1973, 22(23):3099-3108):
To circumvent problems associated with computer-assisted data analysis of compounds with low affinity, the data obtained in the current study were weighted according to a method described by Morton. In brief, 100% and 0% specific binding were defined independently using total binding and binding obtained in the presence of a high concentration of the reference antagonist, 2-NAP.

| pKi | Ki | SMILES |
| --- | --- | --- |
| 6.8 | – | O=C(c1ccc([N+](=O)[O-])cc1NS(=O)(=O)c1cccc2nsnc12)N1CCCCC1 [Example 2, Benzo[1,2,5]thiadiazole-4-sulfonic acid [5-nitro-2-(piperidine-1-carbonyl)-phenyl]-amide] |
| – | 0.1 µM | O=C(c1cc2ccccc2cc1NS(=O)(=O)c1cccc2nsnc12)N1CCCCC1 [Example 4, Benzo[1,2,5]thiadiazole-4-sulfonic acid [3-(piperidine-1-carbonyl)-naphthalen-2-yl]-amide] |
| – | 0.00398 µM | O=C(c1ccc(I)cc1NS(=O)(=O)c1cccc2nsnc12)N1CCCCC1 [Example 6, Benzo[1,2,5]thiadiazole-4-sulfonic acid [5-iodo-2-(piperidine-1-carbonyl)-phenyl]-amide] |
| – | 0.2 µM | O=C(c1ccc(-c2cccs2)cc1NS(=O)(=O)c1cccc2nsnc12)N1CCCCC1 [Example 22, Benzo[1,2,5]thiadiazole-4-sulfonic acid [2-(piperidine-1-carbonyl)-5-thiophen-2-yl-phenyl]-amide] |
| 7.8 | – | O=C(c1cc(Cl)c(Cl)cc1NS(=O)(=O)c1cccc2nsnc12)N1CCCCC1 [Example 36, Benzo[1,2,5]thiadiazole-4-sulfonic acid [4,5-dichloro-2-(piperidine-1-carbonyl)-phenyl]-amide] |
| – | 0.398 µM | CN(C)CC(c1ccccc1)N(C)C(=O)c1ccc(Cl)cc1NS(=O)(=O)c1cccc2nsnc12 (stereo not drawn) [Example 48, 2-(Benzo[1,2,5]thiadiazole-4-sulfonylamino)-4-chloro-N-(2-dimethylamino-1-phenyl-ethyl)-N-methylbenzamide TFA salt] |
| – | 0.126 µM | CN(C(=O)c1ccc(Cl)cc1NS(=O)(=O)c1cccc2nsnc12)c1ccccc1 [Example 58, 2-(Benzo[1,2,5]thiadiazole-4-sulfonylamino)-4-chloro-N-methyl-N-phenyl-benzamide] |
| – | 0.631 µM | CCCCNC(=O)c1ccc(Cl)cc1NS(=O)(=O)c1cccc2nsnc12 [Example 59, 2-(Benzo[1,2,5]thiadiazole-4-sulfonylamino)-N-butyl-4-chloro-benzamide] |
| 7.5 | – | CC1CCCCN1C(=O)c1ccc(Cl)cc1NS(=O)(=O)c1cccc2nsnc12 (stereo not drawn) [Example 70, Benzo[1,2,5]thiadiazole-4-sulfonic acid [5-chloro-2-(2-methyl-piperidine-1-carbonyl)-phenyl]-amide] |
| 7.1 | – | O=C(c1ccc(Cl)cc1NS(=O)(=O)c1cccc2nsnc12)N1CCSC1 [Example 79, Benzo[1,2,5]thiadiazole-4-sulfonic acid [5-chloro-2-(thiazolidine-3-carbonyl)-phenyl]-amide] |
| – | 0.01 µM | CC(c1ccc(F)cc1)N(C)C(=O)c1ccc(I)cc1NS(=O)(=O)c1cccc2nsnc12 (stereo not drawn) [Example 105, 2-(Benzo[1,2,5]thiadiazole-4-sulfonylamino)-N-[1-(4-fluoro-phenyl)-ethyl]-4-iodo-N-methyl-benzamide] |
| – | 0.0158 µM | CN(Cc1ccc(F)cc1F)C(=O)c1ccc(Br)cc1NS(=O)(=O)c1cccc2nsnc12 [Example 111, 2-(Benzo[1,2,5]thiadiazole-4-sulfonylamino)-4-bromo-N-(2,4-difluoro-benzyl)-N-methyl-benzamide] |
| – | 0.00501 µM | CC(c1ccc(F)cc1)N(C)C(=O)c1ccc(Br)cc1NS(=O)(=O)c1cccc2nsnc12 (stereo not drawn) [Example 112, 2-(Benzo[1,2,5]thiadiazole-4-sulfonylamino)-4-bromo-N-[1-(4-fluoro-phenyl)-ethyl]-N-methyl-benzamide] |
| – | 0.398 µM | CON(C)C(=O)c1ccc(Br)cc1NS(=O)(=O)c1cccc2nsnc12 [Example 117, 2-(Benzo[1,2,5]thiadiazole-4-sulfonylamino)-4-bromo-N-methoxy-N-methyl-benzamide] |
| – | 0.126 µM | C[C@H](c1ccccc1)N(C)C(=O)c1cc(Cl)ccc1NS(=O)(=O)c1cccc2nsnc12 [Example 118, (R)-2-(Benzo[1,2,5]thiadiazole-4-sulfonylamino)-5-chloro-N-methyl-N-(1-phenyl-ethyl)-benzamide] |
| 7.5 | – | O=C(c1ccc(I)cc1NS(=O)(=O)c1cccc2nsnc12)N1CCOCC1 [Example 138, Benzo[1,2,5]thiadiazole-4-sulfonic acid [5-iodo-2-(morpholine-4-carbonyl)-phenyl]-amide] |
| – | 0.0251 µM | C[C@@H](NC(=O)c1ccc(Br)cc1NS(=O)(=O)c1cccc2nsnc12)c1ccc(F)cc1F [Example 155] |
| – | 0.0251 µM | Cc1ccc(C(=O)N[C@H](C)c2ccc(F)cc2F)c(NS(=O)(=O)c2cccc3nsnc23)c1 [Example 167, (R)-2-(Benzo[1,2,5]thiadiazole-4-sulfonylamino)-N-[1-(2,4-difluoro-phenyl)-ethyl]-4-methyl-benzamide] |
| – | 0.00794 µM | C[C@H](c1ccccc1)N(C)C(=O)c1ccc(C(F)(F)F)cc1NS(=O)(=O)c1cccc2nsnc12 [Example 195, (R)-2-(Benzo[1,2,5]thiadiazole-4sulfonylamino)-N-methyl-N-(1-phenyl-ethyl)-4-trifluoromethyl-benzamide] |

Test system: not given
Test: not given
Conditions: not given

| melting point | SMILES |
| --- | --- |
| 178 to 179 °C | O=C(c1cc(Cl)c(Cl)cc1NS(=O)(=O)c1cccc2nsnc12)N1CCCCC1 [Example 36, Benzo[1,2,5]thiadiazole-4-sulfonic acid [4,5-dichloro-2-(piperidine-1-carbonyl)-phenyl]-amide] |
| 125 to 127 °C | CC(C)c1ccc(C(=O)N2CCCCC2)c(NS(=O)(=O)c2cccc3nsnc23)c1 [Example 37, Benzo[1,2,5]thiadiazole-4-sulfonic acid [5-isopropyl-2-(piperidine-1-carbonyl)-phenyl]-amide] |
